These results are taken from patent publication US11242541B2, “Skeletal muscle cells and method for inducing same” (KYOTO PREFECTURAL PUBLIC UNIVERSITY CORPORATION, priority 2016, dated 2022).

Test [1] relates to human fibroblasts. Put plainly: Real-time RT-PCR of Myogenin, CKM, Dystrophin mRNA with ERK5 pathway inhibitor (Example 13). In kind it is cell-based. The note with it: ML-infected cells with inhibitor, 14 days after infection. On the procedure:
(§1) In the same manner as in Example 12, human fibroblasts were infected with both a retrovirus vector incorporating MyoD1 gene and a retrovirus vector incorporating L-myc gene (ML). As a control, cells free of infection with a retrovirus vector were also prepared (−). A ERK5 pathway inhibitor, XMDB-92, was added at the indicated concentration to some groups. These were cultured in a myoblast differentiation medium in the same manner as in Example 12. 14 days after infection, nuclear staining was performed in the same manner as in Example 3. Images taken using a fluorescence microscope (Keyence BZ710) are shown (FIG. 13A, upper panel). In addition, the percentages of cells having 4 or more nuclei, cells having 2-3 nuclei and cells having one nucleus were calculated (FIG. 13A, lower panel).
In addition, 14 days after infection, RNA was extracted from the cells. As a control, RNA was also extracted from the primary human skeletal muscle cells (pSKMs). mRNAs of Myogenin, CKM, Dystrophin were quantified by real time RT-PCR.
Background: In qPCR the cycle at which signal appears reflects the starting amount.

Test [2] deals with human fibroblasts. Put plainly: Multinucleation of ML-infected cells with or without ERK5 pathway inhibitor (Example 13). In kind it is cell-based. The settings on record: addition of 2-5 μM inhibitor, 14 days after infection. On the procedure: as §1

As to `CCOc1cc(N2CCC(O)CC2)ccc1Nc1ncc2c(n1)N(C)c1ccccc1C(=O)N2C` [XMD8-92], the “induction of expression of Myogenin, CKM, Dystrophin mRNA by ML gene transfer” value in test [1] is listed as “not suppressed”. Moreover, in test [2], the “percentage of cells having 2-3 nuclei” value is 21-23% and the “percentage of cells having not less than 4 nuclei” value was 10-12%.
